Reference: US12370192B2, “Azole-fused pyridazin-3(2H)-one derivatives” (TAKEDA PHARMACEUTICAL COMPANY LIMITED, priority 2019, dated 2025)

What was measured:
[1] = target: T1, human GPR139 receptor (Homo sapiens, UniProt Q6DWJ6); assay: Measurement of GPR139 Activation Via Calcium Signaling (FLIPR, T-REx-CHO cells); assay type: cell-based; settings: T-REx-CHO cells stably expressing human GPR139, 11-point dose response, 10 μM maximum concentration, read-out: GPR139 Potency (pEC50) (converted)
T1 construct: expressed in transfected cells; host or cells: T-REx-CHO (Thermo Fisher Scientific), doxycycline-induced
T1 sequence (Q6DWJ6 1-353): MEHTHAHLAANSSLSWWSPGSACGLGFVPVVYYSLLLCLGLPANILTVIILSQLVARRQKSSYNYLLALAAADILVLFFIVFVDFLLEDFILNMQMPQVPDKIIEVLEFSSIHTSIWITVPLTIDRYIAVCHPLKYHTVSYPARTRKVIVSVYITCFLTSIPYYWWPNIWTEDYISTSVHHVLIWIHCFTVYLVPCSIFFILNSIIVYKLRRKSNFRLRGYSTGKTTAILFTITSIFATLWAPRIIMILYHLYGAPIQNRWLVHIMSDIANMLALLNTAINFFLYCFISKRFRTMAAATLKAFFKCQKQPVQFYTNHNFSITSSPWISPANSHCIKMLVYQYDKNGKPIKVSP
Description: Measurement of GPR139 Activation Via Calcium Signaling
This cell-based assay measures the ability of compounds to activate GPR139 in stably transfected T-REx™-CHO cells. T-REx™-CHO cells (Thermo Fisher Scientific®) are stably expressed with human GPR139 receptor, whose expression is controlled by a tetracycline-inducible element. The cells are cultured in medium containing F-12K nutrient mixture-Kaighn's modification, TripleLE™ Express (1×)-phenol red, Dulbecco's phosphate-buffered saline (1×), 10% tetracycline-free FBS, Blasticidin S HCl (10 μg/mL) and Hygromycin B (200 μg/mL). The cells are introduced into the wells of a 384-well black clear bottom plate (Costar®) at 10,000 cells/well. GPR139 receptor expression is induced with 2 μg/mL doxycycline (Sigma D9891). The plate is allowed to stand at room temperature for 10-30 minutes and then incubated at 37° C. and 5% CO2 for 17 hours prior to assay.
Culture media is removed from cells and 45 μL of 1× calcium dye (2.5 mM) is added to each well and incubated at 37° C. and 5% CO2 for 40 minutes. The plate is removed from the incubator and allowed to stand at RT for 20 minutes without a plate cover prior to measurement of calcium signaling. The calcium dye is prepared by adding 10 mL of assay buffer (Hank's Balanced Salt Solution (1×), 1 mM HEPES at pH 7.4) to one vial of calcium dye (FLIPR® Calcium 5 Assay Kit; Molecular Devices) at room temperature, vortexing the mixture until homogenous, and transferring the dye to a 250 mL flask using 10 mL of assay, buffer to rinse the vial. The dye is subsequently transferred to a conical flask, which is filled to the 200 mL mark with assay buffer, and 1 mL of […] probenecid solution (142.68 mg/mL in 1M NaOH aq) is added.
Example compounds suspended in DMSO are received from compound management in microtiter plates (0.25 μL/well) and are diluted in assay buffer (25 μL). Following incubation of the cell plate, the Example compounds are added to the cells (11-point dose response, 10 μM maximum concentration) using a FLIPR® Tetra system (Molecular Devices) and fluorescence is measured continuously for 1 minute. EC50 curves are generated with a four-parameter logistic equation using GraphPad Prism® 6, and activation of GPR139 for each example compound is reported as pEC50.

[2] = target: T1, human GPR139 receptor; assay: GPR139 Competition Binding (membrane-based, tritium-labeled ligand); settings: T-REx-CHO membranes with human GPR139; 6.5 nM tritium-labeled ligand; 11-point curve, 30 μM maximum concentration; read-out: GPR139 Binding Affinity (pKi) (converted)
Description: OPR139 Competition Binding
This membrane-based assay measures the ability of compounds to competitively bind GPR139 in stably transfected TREx™-CHO membranes. To prepare the membranes, T-REx™-CHO (Thermo Fisher Scientific®) cells are stably expressed with human GPR139 receptor, whose expression is controlled by a tetracycline-inducible element. The cells are cultured in medium containing F-12K nutrient mixture-Kaighn's modification, 10% tetracycline-free FBS, Blasticidin S HCl (10 μg/mL) and Hygromycin B (200 μg/mL). GPR139 receptor expression is induced for 18 hours with 2 μg/mL doxycycline (Sigma D9891) in growth media. After addition of doxycycline, cells are harvested in PBS and pelleted by centrifugation for 5 minutes at 200×G. Liquid is aspirated off and cells are resuspended in ice cold lysis buffer (20 mM HEPES/5 mM EDTA pH 7.4/1× Roche® protease inhibitor). Samples are vortexed until homogenous and then placed on ice and homogenized using a Dounce homogenizer at 50% power (3 cycles, 10 strokes per cycle). Lysate is centrifuged at 4° C. for 10 minutes in a tabletop Sorvall® centrifuge at 2000×G. The supernatant is recovered and centrifuged in a Sorvall® ultracentrifuge at 35,000 rpm for 30 minutes at 4° C. The supernatant is discarded, and the remaining pellet resuspended in lysis buffer (20 mM HEPES/0.1 mM EGTA/Roche® protease inhibitor). Membrane protein concentration is determined using Thermo Fisher® BCA quantification kit and is aliquoted into microtubes. Tubes are snap frozen in liquid nitrogen and stored at −80° C. Prior to use, the membranes are removed from cold storage, thawed to room temperature, vortexed until homogenous and diluted in assay buffer (20 mM HEPES pH 7.3, 5 mM MgCl2, 1 mM CaCl2), 1× Thermo Scientific® Halt™ protease inhibitor (78429)).
The assay is run in 96-well, polypropylene, v-bottom plates (Greiner Bio-One® 651201). Test compound in DMSO is added to the wells of each plate (11-point dose response curve, 30 μM maximum concentration, 3-fold serial dilution). A fixed amount of tritium-labeled ligand, (S)-2-(2,3-dimethyl-7-oxothieno[2,3-d]pyridazin-6(7H)-yl)-N-(1-(4-methoxyphenyl-2-t)propan-2-yl)acetamide (Quotient Bioresearch) in assay buffer (6.5 nM assay concentration) is added to each well of the assay plate, which is then agitated on a plate shaker for 30 seconds. Next, a fixed amount of membranes in assay buffer (2 μg membranes) is added to each well of the assay plate, which is then spun for 30 seconds at 300 rpm in a tabletop Eppendorf centrifuge, and then incubated at room temperature for 20 minutes. Using a Tomtec harvester, the contents of the assay plate are transferred to Filtermat A (PerkinElmer® No. 1450-421) which prior to use is pre-soaked in 0.5% PEI (Sigma P3143) for 3 hours and dried at room temperature overnight. Following transfer, the Filtermat is washed 5 times with cold wash buffer (20 mM HEPES pH 7.3, 100 mM NaCl). The Filtermat is dried using a microwave oven and placed in a sample bag (PerkinElmer® No. 1450-432) with a scintillator sheet (PerkinElmer® No. 1450-411). The scintillator sheet is melted to the Filtermat using a heat block set to 65° C., placed in a MicroBeta® cartridge and read using a MicroBeta® scintillation counter. Binding curves are generated with a four-parameter logistic equation using GraphPad Prism® 6 and the inhibition constant Ki is reported as pKi.

Compound | EC50 [1] | Ki [2]
Cc1ccc([C@H](C)NC(=O)Cn2nc(C)c3c(C)nn(C)c3c2=O)cc1 [Example 20, (S)—N-(1-(p-tolyl)ethyl)-2-(1,3,4-trimethyl-7-oxo-1,7-dihydro-6H-pyrazolo[3,4-d]pyridazin-6-yl)acetamide] | 41.7 nM | 178 nM
Cc1ccc([C@H](C)NC(=O)Cn2nc(C)c3c(ncn3C)c2=O)cc1 [Example 29, (S)-2-(1,7-dimethyl-4-oxo-1,4-dihydro-5H-imidazo[4,5-d]pyridazin-5-yl)-N-(1-(p-tolyl)ethyl)acetamide] | 513 nM | 30200 nM
COc1ccc([C@H](C)NC(=O)Cn2ncc3c(c(C)nn3C3CC3)c2=O)cc1C [Example 31, (S)-2-(1-cyclopropyl-3-methyl-4-oxo-1,4-dihydro-5H-pyrazolo[3,4-d]pyridazin-5-yl)-N-(1-(4-methoxy-3-methylphenyl)ethyl)acetamide] | 57.5 nM | 11700 nM
Cc1ccc([C@H](C)NC(=O)Cn2nc(C3CC3)c3cnn(-c4ccccc4)c3c2=O)c(F)c1 [Example 42, (S)-2-(4-cyclopropyl-7-oxo-1-phenyl-1,7-dihydro-6H-pyrazolo[3,4-d]pyridazin-6-yl)-N-(1-(2-fluoro-4-methylphenyl)ethyl)acetamide] | ≥ 10000 nM | 19.5 nM
COc1ccc([C@H](C)NC(=O)Cn2ncc3c(c(C(C)C)nn3C)c2=O)cc1 [Example 53, (S)-2-(3-isopropyl-1-methyl-4-oxo-1,4-dihydro-5H-pyrazolo[3,4-d]pyridazin-5-yl)-N-(1-(4-methoxyphenyl)ethyl)acetamide] | 55 nM | 1020 nM
Cc1ccc([C@H](C)NC(=O)Cn2ncc3c(cnn3C(C)C)c2=O)cc1 [Example 89, (S)-2-(1-isopropyl-4-oxo-1,4-dihydro-5H-pyrazolo[3,4-d]pyridazin-5-yl)-N-(1-(p-tolyl)ethyl)acetamide] | 44.7 nM | 2190 nM
Cc1nn(CC(=O)N[C@@H](C)c2ccc(OC(F)(F)F)cc2)c(=O)c2c(C3CC3)nn(C)c12 [Example 118, (S)-2-(3-cyclopropyl-1,7-dimethyl-4-oxo-1,4-dihydro-5H-pyrazolo[3,4-d]pyridazin-5-yl)-N-(1-(4-(trifluoromethoxy)phenyl)ethyl)acetamide] | 69.2 nM | 23.4 nM
Cc1ccc([C@H](C)NC(=O)Cn2ncc3c(c(C)nn3C3CC3)c2=O)cc1 [Example 122, (S)-2-(1-cyclopropyl-3-methyl-4-oxo-1,4-dihydro-5H-pyrazolo[3,4-d]pyridazin-5-yl)-N-(1-(p-tolyl)ethyl)acetamide] | 83.2 nM | 245 nM
Cc1ccc([C@H](C)NC(=O)Cn2nc(C)c3cnn(-c4ccccc4)c3c2=O)cc1 [Example 1] | 51.3 nM | 55 nM

The remaining lines, values ahead:

EC50 [1] | Ki [2] | Compound
72.4 nM | 20.9 nM | Cc1ccc([C@H](C)NC(=O)Cn2ncc3c(c(C(F)(F)F)nn3C)c2=O)c(F)c1 [Example 170, (S)—N-(1-(2-fluoro-4-methylphenyl)ethyl)-2-(1-methyl-4-oxo-3-(trifluoromethyl)-1,4-dihydro-5H-pyrazolo[3,4-d]pyridazin-5-yl)acetamide]
53.7 nM | 2340 nM | [2H]C([2H])([2H])c1ccc([C@H](C)NC(=O)Cn2ncc3c(cnn3C(C)C)c2=O)cc1 [Example 166, (S)-2-(1-isopropyl-4-oxo-1,4-dihydro-5H-pyrazolo[3,4-d]pyridazin-5-yl)-N-(1-(4-(methyl-d3)phenyl)ethyl)acetamide]
20.4 nM | 60.3 nM | Cc1ccc([C@H](C)NC(=O)Cn2ncc3c(C4CC4)nn(C)c3c2=O)cc1F [Example 151, (S)-2-(3-cyclopropyl-1-methyl-7-oxo-1,7-dihydro-6H-pyrazolo[3,4-d]pyridazin-6-yl)-N-(1-(3-fluoro-4-methylphenyl)ethyl)acetamide]
25.7 nM | 933 nM | COc1ccc([C@H](C)NC(=O)Cn2ncc3c(c(C)nn3C3CC3)c2=O)c(F)c1 [Example 127, (S)-2-(1-cyclopropyl-3-methyl-4-oxo-1,4-dihydro-5H-pyrazolo[3,4-d]pyridazin-5-yl)-N-(1-(2-fluoro-4-methoxyphenyl)ethyl)acetamide]
57.5 nM | 47.9 nM | Cc1ccc([C@H](C)NC(=O)Cn2ncc3c(C4CC4)cn(C)c3c2=O)cc1 [Example 158, (S)-2-(3-cyclopropyl-1-methyl-7-oxo-1,7-dihydro-6H-pyrrolo[2,3-d]pyridazin-6-yl)-N-(1-(p-tolyl)ethyl)acetamide]
17.8 nM | 234 nM | [2H]C([2H])([2H])c1ccc([C@H](C)NC(=O)Cn2ncc3ccn(C)c3c2=O)cc1 [Example 174, (S)-2-(1-methyl-7-oxo-1,7-dihydro-6H-pyrrolo[2,3-d]pyridazin-1-yl)-N-(1-(4-(methyl-d3)phenyl)ethyl)acetamide]
– | 30200 nM | Cc1nn(C2CC2)c2cnn(CC(=O)N[C@H](c3ccccc3)C3CC3)c(=O)c12 [Example 173, (S)—N-(cyclopropyl(phenyl)methyl)-2-(1-cyclopropyl-3-methyl-4-oxo-1,4-dihydro-5H-pyrazolo[3,4-d]pyridazin-5-yl)acetamide]
– | 200 nM | C[C@H](NC(=O)Cn1ncc2ccn(C)c2c1=O)c1ccc(C(F)(F)F)cc1 [Example 164, (S)-2-(1-methyl-7-oxo-1,7-dihydro-6H-pyrrolo[2,3-d]pyridazin-6-yl)-N-(1-(4-(trifluoromethyl)phenyl)ethyl)acetamide]
